Test results reported in publication PMC12614342, “Azetidine amino acid biosynthesis by non-haem iron-dependent enzymes” (Nature Chemistry, 2025).

What was measured:
PolF [1] = biological target: T1, PolF (Streptomyces asoensis, UniProt C1IC29); details: Fe(II), O2, ascorbate; 50 mM HEPES pH 7.6, 25 °C (stopped-flow 5 °C, no ascorbate)
PolF [2] = biological target: T1, PolF; details: Fe(II)2 form; L-Ile bidentate on Fe1; TEV-cleaved tagless protein, crystals grown with 15 mM L-Ile, pH 8.5
PolE = biological target: T2, PolE (Streptomyces asoensis, UniProt C1IC30); details: Fe(II), BH4, O2, ascorbate; 50 mM HEPES pH 7.6, 25 °C
T2 construct: gene Saso_24180
T2 sequence (C1IC30 entry or part of it): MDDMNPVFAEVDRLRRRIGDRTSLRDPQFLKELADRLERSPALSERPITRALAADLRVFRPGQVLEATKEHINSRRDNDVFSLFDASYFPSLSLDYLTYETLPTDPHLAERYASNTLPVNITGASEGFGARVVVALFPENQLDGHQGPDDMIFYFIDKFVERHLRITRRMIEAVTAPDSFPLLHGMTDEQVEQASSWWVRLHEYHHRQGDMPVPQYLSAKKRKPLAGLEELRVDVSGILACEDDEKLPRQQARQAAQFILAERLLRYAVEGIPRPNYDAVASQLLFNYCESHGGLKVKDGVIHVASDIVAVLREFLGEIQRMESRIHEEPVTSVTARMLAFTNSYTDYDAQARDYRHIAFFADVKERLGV

SMILES | LC-MS of dansylated products; stopped-flow at 614 nm (PolF [1]) | X-ray crystal structure of the complex (PolF [2]) | LC-MS of dansylated desaturation product (PolE)
CC(C)[C@H](N)C(=O)O [L-Val] | the reaction with L-Val yielded a product with a −4-Da modification | – | –
CC[C@H](C)[C@H](N)C(=O)O [L-Ile] | – | The L-Ile substrate directly coordinates Fe1 in a bidentate fashion | PolE catalysed the desaturation of L-Ile in the presence of BH4
